Data taken from patent US20240398771A1, “TREATMENT OF SCLERODERMA AND RAYNAUD'S SYNDROME” (Aisa Pharma, Inc., priority 2023, published 2024).

Experiments:
participants with SSc-RP [1] = assay: Average severity (0-10) of weekly RP attacks, all attacks; assay type: in vivo, human; conditions: Tadalafil 5 mg; excluding outliers; baseline RCS subgroup 2 of 2; ITT Part A
Source text: (§1) The relevant metrics measured by this tool daily are: • Study medication • SSc-RP symptoms (Reporting an attack including duration of attack) • Severity of the attack considering all symptoms of the attack e.g. tingling, numbness, pain, color changes (VAS 0-10 cm scale) • Participant's location at the time of the attack (inside home/outside home) • Selecting symptoms experienced during the attack (tingling, numbness, pain, color changes, other) • Pain rating during the attack (11-point Likert scale) • The RCS based on how much difficulty participants had with Raynaud's today, how many attacks the participant had, and how long they lasted. Participants will also be asked to consider how much pain, numbness, or other symptoms the Raynaud's caused in fingers (including painful sores), and how much the Raynaud's alone affected the use of hands today (VAS 0-10 cm scale).
The absolute change in average severity of weekly RP attacks (VAS 0-10 cm scale) from baseline to the end of each Dosing Period was and will be a secondary outcome variable. The sponsor-developed participant-informed diary will be used to record data. Average severity of weekly RP attacks is defined as the total severity scores of RP attacks divided by total number of RP attacks within the last 7 days of each dosing period. Total severity scores of RP attacks during the last 7 days of screening period divided by the total number of RP attacks will be used as baseline for the analysis of all periods. The variable will be calculated similar to frequency data as before.

participants with SSc-RP [2] = assay: Frequency of weekly symptomatic RP attacks (patient diary), Phase 2a Part A; assay type: in vivo, human; conditions: ITT Part A
Experimental: Part A—Double-blind, Placebo-controlled, Parallel-group, Dose selection, will assess the safety and efficacy of two doses of cilnidipine (10 mg and 20 mg), alone and in combination with tadalafil. A total of 36 participants will be randomized to one of six pre-specified treatment arms. See Example 3 for data obtained in this phase of the study thus far, on 11 participants.
Please refer to FIG. 1 for treatment arms in Part A of the study. Dosing lasted or will last for 12 (±2) days in which participants self-administered or will self-administer daily doses of assigned treatment in the morning. Each participant took or will take one capsule and one tablet to blind the active therapy being received.
as §1
Percent change from baseline evaluation for frequency of weekly RP attacks were or will be used as the primary efficacy variable. The sponsor-developed participant-informed diary will be used to record data. Frequency of weekly RP attacks is defined as the total number of RP attacks divided by the number of days with available diary data within the last 7 days of each dosing period then multiplied by 7. Total number of RP attacks during the last 7 days of screening period divided by the number of days with available data then multiplied by 7 will be used as baseline for the analysis of all periods.
Percentage change={(weekly RP attacks for the last 7 days of each dosing period−Baseline weekly RP attacks)/Baseline weekly RP attacks}*100%.
Absolute change=weekly RP attacks for the last 7 days of each dosing period−Baseline weekly RP attacks
Percent change from baseline evaluation for frequency of weekly RP attacks was and will be the primary efficacy endpoint. Frequency of weekly RP attacks is defined as the total number of RP attacks divided by the number of days with available diary data within the last 7 days of each dosing period then multiplied by 7. Total number of RP attacks during the last 7 days of screening period divided by the number of days with available data then multiplied by 7 will be used as baseline for the analysis of all periods.
The following data was actually obtained in accordance with the protocol and plan delineated in Examples 1 and 2. The accompanying data involved 11 patients out of the planned 76 patient study. The study was done in patients with scleroderma (systemic sclerosis) who had relatively frequent Raynaud symptoms as they needed to average at least one attack per day during a screening period of up to two weeks. In this first phase of this double-blind placebo-controlled, prospective randomized study, patients were treated in parallel and after meeting study criteria were randomized to receive either placebo, cilnidipine 10 mg daily, cilnidipine 20 mg daily, tadalafil 5 mg daily, cilnidipine 10 mg plus 5 mg of tadalafil, or cilnidipine 20 mg plus 5 mg of tadalafil.

[3] = Table A-1, last 7 days of dosing period
[4] = Table A-1, last 7 days of dosing vs last 7 days of screening
[5] = Table A-2, excluding outliers, last 7 days of dosing period
[6] = Table A-3 by baseline RCS, second sub-table (heading not given; RCS >5.0)

CN1CC(=O)N2[C@H](c3ccc4c(c3)OCO4)c3[nH]c4ccccc4c3C[C@@H]2C1=O [Tadalafil]
Average Severity of Weekly RP Attacks (All Attacks): Average Severity, Mean (participants with SSc-RP [1]): 4.56
Average Severity of Weekly RP Attacks (All Attacks): Average Severity, Median (participants with SSc-RP [1]): 4.56
Average Severity of Weekly RP Attacks (All Attacks): Baseline, Mean (participants with SSc-RP [1]): 5.75
Average Severity of Weekly RP Attacks (All Attacks): Baseline, Median (participants with SSc-RP [1]): 5.75
Weekly Symptomatic RP Attacks, Min (participants with SSc-RP [2]; [3]): 7.0
Weekly Symptomatic RP Attacks, Q1 (participants with SSc-RP [2]; [3]): 7.00
Weekly Symptomatic RP Attacks Change from Baseline, Mean (SD) (participants with SSc-RP [2]; [4]): 4.50 (2.121)
Weekly Symptomatic RP Attacks Change from Baseline, Median (participants with SSc-RP [2]; [4]): 4.50
Weekly Symptomatic RP Attacks Change from Baseline, Min (participants with SSc-RP [2]; [4]): 3.0
Weekly Symptomatic RP Attacks Change from Baseline, Q1 (participants with SSc-RP [2]; [4]): 3.00
Weekly Symptomatic RP Attacks Percent Change from Baseline, Max (participants with SSc-RP [2]; [4]): 75.0%
Weekly Symptomatic RP Attacks Percent Change from Baseline, Q3 (participants with SSc-RP [2]; [4]): 75.00%
Weekly Symptomatic RP Attacks Change from Baseline, Max (participants with SSc-RP [2]; Table A-2, excluding outliers): 6.0, 6.0
Weekly Symptomatic RP Attacks Change from Baseline, Q3 (participants with SSc-RP [2]; Table A-2, excluding outliers): 6.00, 6.00
Weekly Symptomatic RP Attacks Percent Change from Baseline, Min (participants with SSc-RP [2]; Table A-2, excluding outliers): 50.0, 50.0%
Weekly Symptomatic RP Attacks Percent Change from Baseline, Q1 (participants with SSc-RP [2]; Table A-2, excluding outliers): 50.00, 50.00%
Weekly Symptomatic RP Attacks, Max (participants with SSc-RP [2]; [5]): 18.0, 18.0
Weekly Symptomatic RP Attacks, Q3 (participants with SSc-RP [2]; [5]): 18.00, 18.00
Weekly Symptomatic RP Attacks Change from Baseline, Max (participants with SSc-RP [2]; [6]): 6.0
Weekly Symptomatic RP Attacks Change from Baseline, Min (participants with SSc-RP [2]; [6]): 3.0
Weekly Symptomatic RP Attacks Change from Baseline, Q1 (participants with SSc-RP [2]; [6]): 3.00
Weekly Symptomatic RP Attacks Change from Baseline, Q3 (participants with SSc-RP [2]; [6]): 6.00
Weekly Symptomatic RP Attacks Percent Change from Baseline, Max (participants with SSc-RP [2]; [6]): 75.0%
Weekly Symptomatic RP Attacks Percent Change from Baseline, Min (participants with SSc-RP [2]; [6]): 50.0%
Weekly Symptomatic RP Attacks Percent Change from Baseline, Q1 (participants with SSc-RP [2]; [6]): 50.00%
Weekly Symptomatic RP Attacks Percent Change from Baseline, Q3 (participants with SSc-RP [2]; [6]): 75.00%
Weekly Symptomatic RP Attacks, Max (participants with SSc-RP [2]; [6]): 18.0
Weekly Symptomatic RP Attacks, Min (participants with SSc-RP [2]; [6]): 7.0
Weekly Symptomatic RP Attacks, Q1 (participants with SSc-RP [2]; [6]): 7.00
Weekly Symptomatic RP Attacks, Q3 (participants with SSc-RP [2]; [6]): 18.00
